Assay results reported in patent publication US20220074923A1, “METHODS OF IDENTIFYING PARKIN-MEDIATED MITOPHAGY ACTIVATING AGENTS” (THE GOVERNING COUNCIL OF THE UNIVERSITY OF TORONTO, priority 2018, published 2022).

Columns and labels:
HEK293 GFP Parkin cells [1] = experiment: High throughput small molecule screen for Parkin recruitment to mitochondria (high content imaging); assay type: cell-based; conditions: for rank in the kinase inhibitor library screen (rank order by z-score): 4 μM, 16 h, then CCCP 2 h, rank out of 480, low rank = activator of Parkin recruitment, high rank = inhibitor
Procedure: 10 uL of 0.1 mg/mL Poly-D-Lys solution was added to 384-well plates for 5 minutes, followed by a PBS wash. Plates were dried for at least 2 hours. 50 μL of 600 000 HEK293 GFP Parkin cell/mL of DMEM was dispensed into each well. After 24 hours incubation to allow the cells to adhere, 200 nL of small molecules (or DMSO in columns 1, 2, 23 and 24) were pinned. Following a 16-hour incubation, 200 nL of 5 mM CCCP were added to all wells except columns 1 and 2, into which 200 nL of DMSO was added. Following 2-hour incubation, cells were fixed with 4% paraformaldehyde (PFA) and stained with 50 μL of 1 μg/mL DAPI solution for 15 minutes. After the final PBS wash, plates were ready for high content microscopy.
Images were acquired on IN Cell Analyzer 6000 (GE Healthcare), equipped with sCMOS camera (2048×2048), and 20x/0.45 NA Plan Fluor objective (Nikon) in open aperture mode using 1×1 binning. Image analysis was performed using Columbus Image Analysis System (PerkinElmer). Nuclei were initially detected in DAPI channel, followed by whole cell segmentation in GFP channel. Using PhenoLOGIC machine learning plug-in, cells were split into 2 sub-populations: cells with even GFP-Parkin distribution and cells where GFP-Parkin was localized to mitochondria. The percentage of cells with mitochondrial GFP-Parkin was determined per well. The molecules were then rank ordered based on z-score, which is calculated using the formula: […]
where x is the percentage of cells with mitochondrial GFP-Parkin for a specific small molecule, μ is the average percentage of cells with mitochondrial Parkin in positive control columns 23 and 24, where cells are treated with CCCP only.
These cell lines were screened across 2 biological replicates with compounds from the kinase inhibitor (n=480) and Prestwick (n=1120) collections. The 3-day screening protocol consisted of (1) seeding cells, (2) pinning small molecules at 4 μM concentration and (3) inducing mitophagy with CCCP, followed by processing of plates for high content imaging. Following image acquisition, DAPI staining was used to segment cells within each image. Supervised machine learning was used to classify cells into two classes: (1) cells with cytosolic Parkin distribution and (2) those with Parkin localized to mitochondria. […] Compounds which increased the proportion of class 2 cells across 2 biological replicates, compared to the CCCP-only treated cells (FIG. 10), as indicated by their z-score (FIG. 11), were considered hits.

[2] = tested on: differentiated SH-SY5Y cells; experiment: Cell viability determination (ATP levels normalized to protein); assay type: cell-based; conditions: 500 μM, 24 hours
Procedure: SH-SY5Y cells were differentiated according to previously established protocol consisting of sequential treatment with retinoic acid followed by brain-derived neurotrophic factor^10. Cells were then seeded into white 96-well plates with white bottom and allowed to adhere overnight. Varying doses of SR3677 were combined with 500 μM paraquat and administered for 24 hours. Controls treated with 0.5 μM SR3677, equivalent volume DMSO and paraquat alone were also included. Following 24-hour incubation, cell media was aspirated and THE lysis buffer (50 mM Tris-HCl, 100 mM NaCl, 0.1 mM EDTA) containing protease inhibitor cocktail was added to each well. Half of the lysate volume was removed and aliquoted into a separate 96-well plate. ATP levels were measured in the opaque plate using the ATP determination (ThermoFisher A22066) assay kit and protein concentrations were measured using the Pierce BCA (ThermoFisher #23225) assay kit. ATP levels were normalized to protein concentration and then by the ratio for cells treated with paraquat alone in a control well on each plate.

Canton(S) flies = assay type: in vivo, Drosophila; conditions: 10 mM paraquat in food
Procedure: Fresh vials containing standard fly food supplemented with the indicated treatments were changed out every 2 days. The number of flies surviving each day was counted and log-rank tests were performed to determine statistical significance. […] The number of flies to climb beyond 9.5 cm every 10 seconds was assessed. The percentage of flies in each treatment to cross this line was determined. The climbing ability of each treatment was normalized to the control group treated with water only. […] Log-rank tests were performed to determine p-values for survival analyses (a, b, g), *P<0.05. P-values were determined by one-tailed paired student's t-test for all climbing assays (c-e, h), *P<0.05. Data is expressed as mean±s.e.m. All error bars represent s.e.m
Drosophila aged 7 days are fed food supplemented with either water (control), 1 mM SR3677, 10 mM paraquat or SR3677 in combination with paraquat. The survival of flies was recorded each day following administration of the treatments and climbing abilities were tested every 2 days by performing negative geotaxis assays.

Drosophila = assay type: in vivo; conditions: Canton(S), 10 mM paraquat
Procedure: Fresh vials containing standard fly food supplemented with the indicated treatments were changed out every 2 days. The number of flies surviving each day was counted and log-rank tests were performed to determine statistical significance. 20 flies per treatment, n=5 (c) The climbing ability of flies treated as described in (a and bin) was assessed 4 days following initial administration of treatments. The number of flies to climb beyond 9.5 cm every 10 seconds was assessed. The percentage of flies in each treatment to cross this line was determined. The climbing ability of each treatment was normalized to the control group treated with water only. 20 flies per treatment, n=5. (d) The climbing ability of UAS-park^RNAi and ddc-GAL4>UAS-park^RNAi flies fed either paraquat or paraquat in combination with SR3677. 20 flies per treatment, n=7. (e) Proteins lysates from UAS-park^RNAi or tubulin>UAS-park^RNAi whole flies were separated by SDS-PAGE. Immunoblotting with anti-Parkin and anti-actin antibody was performed. (f) The climbing ability of TH-GAL flies fed either paraquat or paraquat in combination with SR3677. (g) Survival of heteroplasmic mt:Coll^T300l flies fed fly food supplemented with water or 2 mM SR3677 and wild-type Canton(S) flies (n=3 independent experiments). (h) The climbing ability of heteroplasmic mt:Coll^T300l flies fed either water or 2 mM SR3677 for 7 days. Log-rank tests were performed to determine p-values for survival analyses (a, b, g), *P<0.05. P-values were determined by one-tailed paired student's t-test for all climbing assays (c-e, h), *P<0.05. Data is expressed as mean±s.e.m. All error bars represent s.e.m
Male Canton(S) Drosophila were aged 7 days prior to feeding with standard fly food supplemented with water, 10 mM paraquat, 1 mM SR3677, or with combinations of these chemicals. Flies were placed into new vials containing fresh food supplemented with the treatments previously administered and 2 days later, climbing assays were performed. Flies were placed into plastic cylinder vials and tapped down, so all flies fell to the bottom. The number of flies to climb beyond 12.5 cm was counted every 10 s and values are represented as the percentage of total flies in each treatment group.

S2R+ cells = experiment: mitoSOX mitochondrial superoxide staining; assay type: cell-based; conditions: toxin alone
Procedure: A) Staining was performed with mitoSOX Red Mitochondrial Superoxide dye. B) Quantification of the fluorescence intensity of the mitoSOX probe in the indicated treatments (n=3). Data is presented as mean±s.e.m. P-values were determined by paired student's t-test, *P-value<0.05.
Whether SR3677 may protect against paraquat-induced phenotypes by interfering with paraquat's activity was also assessed. Paraquat gives rise to mitochondrial superoxide species that can be detected using mitoSOX, a fluorescent probe that is targeted to mitochondria, where it may be oxidized by superoxides. The oxidized mitoSOX species fluoresces upon encountering nucleic acid. The fluorescence intensity of Schneider's S2-R^+ cells, a cell line derived from dissociated embryos with a flat morphology amenable to imaging, was assessed following treatments with paraquat or paraquat and SR3677.

HEK293 GFP Parkin cells [3] = experiment: Parkin recruitment assay; assay type: cell-based
Procedure: HEK293 GFP Parkin cells were seeded into 12-well plates containing coverslips. Cells were treated with small molecules for 2 hours prior to mitophagy induction with 10 μM CCCP, unless indicated otherwise. Following fixation with 4% PFA, immunostaining was carried out using anti-ATP5A primary antibody and anti-mouse Alex Fluor 568.
To measure the percentage of cells with Parkin localized to mitochondria a 2 step process was employed: (1) whole cell segmentation based on GFP Parkin using CellProfiler software and (2) classification into Parkin distribution subpopulation using CellProfiler Analyst. The percentage of cells with Parkin localized to mitochondria was determined in each image. Images were taken at 20× magnification for this experiment, resulting in the classification of at least 300 cells in each treatment group per trial.

HEK293 GFP Parkin cells [4] = experiment: Immunoblotting of mitochondrial protein degradation after CCCP; assay type: cell-based; conditions: 10 μM CCCP
Procedure: (a) HEK293 GFP Parkin cells were treated with varying doses of SR3677 for 2 hours prior to induction of mitophagy with 10 μM CCCP for one hour. The percentage of cells with mitochondrial Parkin increased in a dose-dependent manner. […] Cell lysates were harvested, proteins were separated by SDS-PAGE and immunoblotting was performed with anti-Mfn2 and anti-actin antibodies. (c) Ponceau VDAC1 levels in each sample normalized to Ponceau staining. (d) Mfn2/actin levels in CCCP treated cells. (e) Densitometry analysis was performed to quantify Mfn2 and VDAC1 levels in each sample (n=4 independent experiments).
HEK293 GFP Parkin cells co-treated with 0.5 μM SR3677 or DMSO and 10 μM CCCP for the indicated time (hours). Cell lysates were separated by SDS-PAGE and immunoblotting was performed to assess turnover of IMM/matrix substrates (A) ATP5A, (B) UQCRC2 and (C) COXIV. Densitometry analysis was performed. Protein levels were normalized to Ponceau. Data is expressed as mean±s.e.m (n=6, 7 and 8 for a, b and c, respectively. 4) P-values were determined by paired student's t-test, *P<0.05.
Lysates were harvested using lysis buffer (0.1M Tris HCl, 0.01% SDS, pH 9) with 1× protease inhibitor cocktail (BioShop, PIC002.1). Lysates were then heated at 95° C. for 20 minutes with vortexing performed at 5-minute intervals. The BCA assay (Pierce, 23227) was performed to determine protein concentration, to standardize protein loading across samples to be compared. 12% SDS-PAGE gels were used to run samples to be analyzed for LC3 conversation and for Tom20 and 10% gels were run for all other samples. Transfer of proteins onto PVDF membrane (Immobilon, IPVH00010) was performed at 110V for 80 minutes or at 36V for 8 hours. Membranes were blocked with 5% skim milk in TBST (1×TBS, 0.1% Tween-20 [BioShop, 1M23298]) for 30 minutes prior to incubation in primary antibodies at a dilution of 1:1000 for all antibodies except anti-ROCK2 and anti-LC3, which were used at a dilution of 1:5000. Visualization of proteins was performed using ECL (BioRad, 11705062).
Densitometry was performed by normalizing bands corresponding to the protein of interest to a loading control such as actin using ImageLab 6.0 software (BioRad).

ROCK2 = ROCK2 (Homo sapiens, UniProt O75116); conditions: biochemical and cell-based assays, previous studies; cited from earlier work
[5] = cited from earlier work

ROCK2, sequence (O75116 whole entry): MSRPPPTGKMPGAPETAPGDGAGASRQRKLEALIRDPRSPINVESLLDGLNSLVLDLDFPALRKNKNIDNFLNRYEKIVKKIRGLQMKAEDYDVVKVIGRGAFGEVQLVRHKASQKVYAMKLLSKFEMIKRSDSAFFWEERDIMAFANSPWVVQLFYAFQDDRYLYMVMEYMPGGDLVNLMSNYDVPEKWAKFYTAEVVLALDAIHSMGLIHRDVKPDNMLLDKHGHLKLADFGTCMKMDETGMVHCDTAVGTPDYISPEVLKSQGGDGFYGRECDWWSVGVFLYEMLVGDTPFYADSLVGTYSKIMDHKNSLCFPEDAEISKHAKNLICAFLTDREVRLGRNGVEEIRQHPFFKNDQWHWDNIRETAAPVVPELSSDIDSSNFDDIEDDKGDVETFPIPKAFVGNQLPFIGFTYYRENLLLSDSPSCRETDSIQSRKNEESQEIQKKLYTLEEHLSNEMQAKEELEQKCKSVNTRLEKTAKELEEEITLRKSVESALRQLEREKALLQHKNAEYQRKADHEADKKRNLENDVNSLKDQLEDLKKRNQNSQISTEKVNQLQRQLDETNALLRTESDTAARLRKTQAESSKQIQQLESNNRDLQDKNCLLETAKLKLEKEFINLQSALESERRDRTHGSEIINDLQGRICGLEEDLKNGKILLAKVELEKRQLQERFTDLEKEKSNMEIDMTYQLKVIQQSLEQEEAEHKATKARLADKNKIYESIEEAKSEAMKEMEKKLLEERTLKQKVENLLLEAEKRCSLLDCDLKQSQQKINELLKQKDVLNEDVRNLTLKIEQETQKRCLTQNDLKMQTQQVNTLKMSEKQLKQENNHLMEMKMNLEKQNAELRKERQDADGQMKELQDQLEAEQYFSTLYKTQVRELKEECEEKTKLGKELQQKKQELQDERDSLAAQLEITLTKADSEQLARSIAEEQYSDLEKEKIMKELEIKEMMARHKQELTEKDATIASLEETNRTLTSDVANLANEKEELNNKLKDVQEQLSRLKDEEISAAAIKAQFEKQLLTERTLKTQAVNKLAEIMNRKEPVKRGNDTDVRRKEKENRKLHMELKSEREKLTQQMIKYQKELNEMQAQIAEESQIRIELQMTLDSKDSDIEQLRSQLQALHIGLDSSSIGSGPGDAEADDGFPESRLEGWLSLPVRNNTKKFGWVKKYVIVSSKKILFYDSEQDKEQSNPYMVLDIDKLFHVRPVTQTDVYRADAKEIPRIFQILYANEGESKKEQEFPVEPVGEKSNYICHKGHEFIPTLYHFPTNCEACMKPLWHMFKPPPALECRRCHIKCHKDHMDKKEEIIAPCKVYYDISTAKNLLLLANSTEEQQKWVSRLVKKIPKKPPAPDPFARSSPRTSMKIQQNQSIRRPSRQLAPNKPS

## NC(=O)Nc1cc(-c2cccc(F)c2)sc1C(=O)N[C@H]1CCCNC1 [AZD-7762]
HEK293 GFP Parkin cells [1]
  rank in the kinase inhibitor library screen (rank order by z-score): 413/480

## O=c1[nH]c2ccc(Cl)cc2c(N[C@@H]2CN3CCC2CC3)c1-c1nc2ccccc2[nH]1 [CHIR-124]
HEK293 GFP Parkin cells [1]
  rank in the kinase inhibitor library screen (rank order by z-score): 403/480

## NC(=O)c1ccc2nc(-c3ccc(Oc4ccc(Cl)cc4)cc3)[nH]c2c1 [Chk2 inhibitor II]
HEK293 GFP Parkin cells [1]
  rank in the kinase inhibitor library screen (rank order by z-score): 402/480

## C[n+]1ccc(-c2cc[n+](C)cc2)cc1 [Paraquat]
[2]
  cell viability, paraquat alone: reduced the viability of cells
Canton(S) flies
  survival of flies, paraquat alone: reduced
Drosophila
  climbing ability, paraquat alone: impairs the climbing ability of flies over time
S2R+ cells
  fluorescence intensity of mitoSOX: increases the fluorescence intensity of mitoSOX

## CN[C@@H]1C[C@H]2O[C@@](C)([C@@H]1OC)n1c3ccccc3c3c4c(c5c6ccccc6n2c5c31)C(=O)NC4 [Staurosporine]
HEK293 GFP Parkin cells [1]; known activator of Parkin-mediated mitophagy
  position among hits of the screen: ≤ 0.3%

## Cc1cnc(Nc2ccc(OCCN3CCCC3)cc2)nc1Nc1cccc(S(=O)(=O)NC(C)(C)C)c1 [TG-101348]
HEK293 GFP Parkin cells [1]
  rank in the kinase inhibitor library screen (rank order by z-score): 418/480

## C[C@@H](N)c1ccc(C(=O)Nc2ccnc3[nH]ccc23)cc1 [Y39983]
HEK293 GFP Parkin cells [1]
  rank in the kinase inhibitor library screen (rank order by z-score): 5/480
HEK293 GFP Parkin cells [3]; 10 μM, 2-hour treatment, CCCP
  Parkin recruitment on re-test: recapitulated the effects observed following overnight incubation
HEK293 GFP Parkin cells [3]; compound alone
  Parkin distribution in the absence of CCCP: diffuse
HEK293 GFP Parkin cells [4]
  concentration administered to enhance Mfn2 degradation: 10 µM
HEK293 GFP Parkin cells [4]; 2 h pre-treatment, Y39983 10 μM, SR3677 0.5 μM
  Mfn2 degradation following CCCP: Increased degradation of Mfn2
ROCK2
  ROCK2 inhibition: sufficiently inhibit both ROCK1 and ROCK2
[5]
  cell permeability: poor cell permeability

## CC(C)(C)OO [luperox]
S2R+ cells
  fluorescence intensity of mitoSOX: increases the fluorescence intensity of mitoSOX

## O=C(Nc1ccncc1)Nc1c(Cl)cc(Cl)cc1Cl [rho kinase inhibitor II]
HEK293 GFP Parkin cells [1]; ROCK inhibitors, 4 μM plus CCCP
  class in the screen (FIG. 1b): Enhancers of Parkin recruitment
